Experimental findings from patent EP3884948A1, “CATHEPSIN INHIBITORS AND USES THEREOF” (Ecole Polytechnique Fédérale de Lausanne (EPFL), priority 2020, dated 2021) are described below.

Series [1] deals with A20-HA lymphoma cells co-incubated with CD8+ T-cells isolated from CL4-HA transgenic animals. Description: Co-culture assay of A20-HA lymphoma cells with CD8+ T-cells. The class given is cell-based, mouse. The conditions noted are these: A20-HA cells pre-treated with 30uM inhibitor; for over-activation of CD8+ T-cells: 72h co-incubation. The protocol:
Proteins were extracted using a buffer containing 20 mM Tris-HCl (pH 7.5) 150 mM NaCl, 1 mM Na2EDTA 1 mM EGTA 1% NP-40 1% sodium deoxycholate 2.5 mM sodium pyrophosphate 1 mM β-glycerophosphate 1 mM Na3VO4 1 µg/ml leupeptin) supplemented with protease (Sigma Aldrich, cat #11836153001) and phosphatases (Roche, cat #04906837001) inhibitors and quantified with the Bradford reagent (Bio-Rad, cat #5000006). 20-30 µg of proteins were resolved on SDS-PAGE and transferred at 20V for 20-30 minutes to Immobilon-P-membranes (Millipore). After blocking in 5% milk (Applichem, cat #A0830) in PBS-0.1%Tween (Fisher scientific, cat #BP337), membranes were incubated overnight in 5% milk in PBS-Tween with the following primary antibodies: goat anti-human Cathepsin S (RD, cat #AF1183, 1:2000), Cathepsin B (D1C7Y) XP® Rabbit (Cell signaling mAb #31718), rabbit anti-mouse Cathepsin S (Sino Biological, cat #50769-R054, 1:1000), mouse anti-human CD74 (PIN.1, StressMarq, cat #SMC-116, diluted 1:1000), rat-anti-mouse CD74 (clone ln-1, BD biosciences, cat #555317, 1:1000), rabbit anti-his-Tag (Cell Signaling, cat #D3I10, dilute 1:1000), mouse anti-human alpha-Tubulin (clone B-5-1-2, Sigma Aldrich, cat#T6072, diluted 1:10000), anti-beta actin (clone 8H10D10, ThermoFisher Scientific, cat# MA5-15452, 1:1000).
At the end of the B-cell/T cell co-culture, […] and analyzed for the proliferation of T cells stained with an Pe-Cy7 anti-mouse CD8a antibody (Clone 53-6.7, BD Biosciences, San Jose, CA, USA, cat #552877) or PercP efluor 710 rat anti-CD4 antibody (bd bioscience, cat#564379) by quantifying CellTrace violet proliferation peaks using flow cytometry. In parallel, B cell concentration was measured using cell-counting flow-cytometer (Guava easyCyte). A20-HA lymphoma cells wild-type, Ctss knock-out, B2m knock-out, and Pdl1 knock-out expressing HA as antigen were pre-treated with 30uM E64 (Apexbio Technology LLC (cat #A2576), 30uM Z-FL-COCHO (Anawa trading SA, cat #A13502-5), 30uM LY300328 (Lucerna Chem AG, cat # MCE-HY-15533) or-directly co-incubated for 72h with CellTrace violet stained CD8+ T-cells isolated from CL4-HA transgenic animals. At the end of the B-cell/T cell co-culture, cells were collected, stained with PE-Cy7 anti-mouse CD8a antibody (Clone 53-6.7, BD Biosciences, San Jose, CA, USA cat #552877) and analyzed for the proliferation of T cells stained by quantifying CellTrace violet proliferation peaks using flow cytometry. In parallel, B cell concentration was measured using cell-counting flow-cytometer (Guava easyCyte).

The next series has as its target T1, cathepsin S (CTSS) (Homo sapiens, UniProt P25774).
T1 construct: made in house; host or cells: HEK293
Description: FRET assay for cathepsin S (inhibitor screen and substrate cleavage). Type of series: biochemical. The conditions noted are these: for cleavage by CTSS as substrate: FRET, CTSS-His-WT, SEQ ID NO: 1 compared with SEQ ID NO: 4; for inhibition of cathepsin S activity (MCA fluorescent emission): CTSS, peptide of SEQ ID NO: 1 as substrate, Fig. 3. The protocol: CTSS-His WT and Y132D were diluted to 10 µg/mL in Assay buffer (50 mM NaOAc, 5 mM DTT, 250 mM NaCl), at pH 4.5 and incubated at 37°C for 90 minutes to allow auto-activation. The proteins were then diluted to 0.5 ng/µl in Assay buffer and plated in 96-well plates (50 µl/well). The peptides of SEQ ID NO: 1, SEQ ID NO: 2, SEQ ID NO: 3, SEQ ID NO: 4 and SEQ ID NO: 5 were synthesized and diluted to 20 µM in a buffer (50 mM NaOAc, 5 mM DTT, 250 mM NaCl) then added to the activated CTSS (50 µl/well). 50 µM E64 (Selleckchem, cat #S7379) was added to CTSS prior to the substrate as positive control. A commercially available CTSS purified protein (R&D systems, cat #1183-CY-010) was in addition used as control. MCA emission was measured with SpectraMax iD3 (Molecular Devices) in kinetic mode for 20 minutes (excitation: 330 nm, emission: 390 nm).
The FRET assay was miniaturized to performed the screen in […] and each molecule was tested in duplicates. 10 µg/ml of CTSS was incubated in the activation buffer for 105 minutes to allow a complete activation of the enzyme. Then, the enzyme was diluted at 0.5 µg/ml and dispensed in […] pre-loaded with the small molecule candidates using an automatic dispenser (Biotek Dispenser multiflo). The plates were incubated for 10 minutes at room temperature and then 20 µM of substrate was added in each well and acquired the fluorescence signal (excitation: 330 nm, emission: 390 nm) after 90 minutes. For each plate, were included untreated wells as negative control and E64 was used (150 µM) as positive control. To assess the quality of the screen, a Z'-score for each plate was calculated and all plates had Z' score > 0.6. To identify possible hits, the average value and standard deviation of the positive and negative control were calculated. The upper and lower limit values for each plate were calculated considering plus/minus three times the standard deviation to the average and only compounds that in both independent duplicate scored below the positive control threshold were retained.

The target in another series is cathepsin H (CTSH) (Homo sapiens, UniProt P09668). Description: FRET specificity assay for cathepsin H. Type of series: biochemical. The conditions noted are these: peptide of SEQ ID NO: 2 as substrate, Fig. 5. The protocol: First, specific conditions to activate the enzymes were used as follows: CTSB was diluted in active buffer (MES 25 mM, DTT 5 mM, pH 5) at 10 µg/ml, incubated at 37°C for 2h and then diluted to 1 µg/ml in assay buffer (MES 25 mM, pH 5) for the FRET assay. CTSH was diluted in a specific active buffer (MES 50 mM, CaCl2 10 mM, NaCl 150 mM, pH 6.5) 200 µg/ml. In addition, as co-stimulatory activator thermolysin diluted at 100 µg/ml in active buffer was used mixed with equal volume of the diluted CTSH. The solution was incubated for 1h room temperature and then we added 2 mM Phosporamidon diluted in assay buffer (MES 50 mM, pH 6,5) and incubate the mix for 10 minutes at room temperature. Lastly, an equal volume of assay buffer containing 20 mM DTT was added and the mixture incubated 5 minutes at room temperature. For the FRET assay, diluted both CTSH, and CTSB at 1 µg/ml were used in their specific assay buffer and incubated with a specific substrate. […] Fluorescence emission was measured with SpectraMax iD3 (Molecular Devices) in kinetic mode over three hours (excitation: 330 nm, emission: 390 nm).
Sequence of cathepsin H (CTSH) (P09668 116-335 limits assumed, other chains not shown): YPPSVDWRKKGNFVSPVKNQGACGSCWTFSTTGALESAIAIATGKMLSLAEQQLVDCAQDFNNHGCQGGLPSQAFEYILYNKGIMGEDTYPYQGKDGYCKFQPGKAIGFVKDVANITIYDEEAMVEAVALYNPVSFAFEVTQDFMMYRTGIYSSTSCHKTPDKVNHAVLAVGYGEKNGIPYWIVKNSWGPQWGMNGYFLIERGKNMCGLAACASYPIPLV

The next series addresses cathepsin B (CTSB) (Homo sapiens, UniProt P07858). Description: FRET specificity assay for cathepsin B. The conditions noted are these: for inhibition of Cathepsin B activity (MCA fluorescent emission): CTSB, peptide of SEQ ID NO: 5 as substrate, Fig. 4. The class given is biochemical. The protocol: First, specific conditions to activate the enzymes were used as follows: CTSB was diluted in active buffer (MES 25 mM, DTT 5 mM, pH 5) at 10 µg/ml, incubated at 37°C for 2h and then diluted to 1 µg/ml in assay buffer (MES 25 mM, pH 5) for the FRET assay. CTSH was diluted in a specific active buffer (MES 50 mM, CaCl2 10 mM, NaCl 150 mM, pH 6.5) 200 µg/ml. In addition, as co-stimulatory activator thermolysin diluted at 100 µg/ml in active buffer was used mixed with equal volume of the diluted CTSH. The solution was incubated for 1h room temperature and then we added 2 mM Phosporamidon diluted in assay buffer (MES 50 mM, pH 6,5) and incubate the mix for 10 minutes at room temperature. Lastly, an equal volume of assay buffer containing 20 mM DTT was added and the mixture incubated 5 minutes at room temperature. For the FRET assay, diluted both CTSH, and CTSB at 1 µg/ml were used in their specific assay buffer and incubated with a specific substrate. As substrate, the following peptides were used: peptide of SEQ ID NO: 5 (KPPKPVSD) in CTSB FRET assays and SEQ ID NO: 1 (KLRMKLPKP) in CTSH FRET assays and tested increasing doses of candidate inhibitors (20 µM, 10 µM, 1 µM, 0.1 µM). Fluorescence emission was measured with SpectraMax iD3 (Molecular Devices) in kinetic mode over three hours (excitation: 330 nm, emission: 390 nm).

Series [2] has as its system human lymphoma cancer cell lines (Karpas-422 and DoHH2). Briefly: Cell viability assay in lymphoma cell lines. Type of series: cell-based. The conditions noted are these: for toxicity / cell survival: Karpas-422 and DoHH2, 48h or 72h, increasing doses up to 50 µM. The protocol:
Two human lymphoma cell lines DoHH2 and Karpas-422 and one murine lymphoma cell line A20 were treated with increasing concentration of compounds (1), (5) and (9). 24 hours before treatment cells were diluted at 2^∗10^5 cells/ml. Cell number was measured at 48h and 72h after treatment using automatic cell counting of Millipore Guava. The values were normalized to cells treated with the same dose of vehicle (DMSO).
Next, the toxicity of these inhibitors on two human lymphoma cancer cell lines (Karpas-422 and DoHH2). The cells were treated with the small molecules for 48h or 72h at increasing doses (50 µM, 10 µM, µM, 0.1 µM). […] Conversely, compound (9) progressively decreases cell proliferation of up to 50% after 72 hours of exposure to the 0. 1 µM of the compound or less than 30% in cells treated with 10 or 50 µM.

T1 sequence (P25774 115-331): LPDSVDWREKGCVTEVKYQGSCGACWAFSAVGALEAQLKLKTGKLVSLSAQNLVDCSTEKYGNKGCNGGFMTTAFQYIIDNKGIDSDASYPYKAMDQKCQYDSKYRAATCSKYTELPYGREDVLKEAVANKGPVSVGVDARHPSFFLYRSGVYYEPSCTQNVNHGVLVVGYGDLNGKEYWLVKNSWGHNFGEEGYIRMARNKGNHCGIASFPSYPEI

Consider Z-FL-COCHO, for which, in series [1], the “accumulation of the small fragment of CD74, p10” value is “observed” and the “over-activation of CD8+ T-cells” value is given as “no over-activation”.

Regarding `CC(C)C[C@H](NC(=O)[C@H]1O[C@@H]1C(=O)O)C(=O)NCCCCNC(=N)N` [E64], in series [1], the “accumulation of the small fragment of CD74, p10” value is given as “observed” and the “over-activation of CD8+ T-cells” value is “no over-activation”.

Turning to KLRMKLPKD [SEQ ID NO: 2], the “cleavage by CTSS as substrate” value with cathepsin S (CTSS) was “improved cathepsin S substrate”.

In the case of KLRMKLPKP [SEQ ID NO: 1], in the series with cathepsin S (CTSS), the “cleavage by CTSS as substrate” value was “cleaved more efficiently”.

With `O=c1ccc(-c2ccco2)nn1CCNS(=O)(=O)c1ccccc1F` [compound (1), 2-fluoro-N-[2-[3-(2-furanyl)-6-oxo-1(6H)-pyridazinyl]ethyl]-benzenesulfonamide], the “inhibition of Cathepsin H activity (MCA fluorescent emission)” value (“inhibition of Cathepsin H activity” for short) at cathepsin H (CTSH) is “not Cathepsin H”. On cathepsin B (CTSB), the “inhibition of Cathepsin B activity (MCA fluorescent emission)” value (“inhibition of Cathepsin B activity” for short) is recorded as “not Cathepsin B”. Also, in series [2], the “toxicity / cell survival” value is recorded as “well tolerated”. In addition, the “inhibition of cathepsin S activity (MCA fluorescent emission)” value (“inhibition of cathepsin S activity” for short) against cathepsin S (CTSS) is given as “able to inhibit cathepsin S activity”.

Regarding KPPKPVSK [SEQ ID NO: 4], the “substrate for Cathepsin B” value in the series with cathepsin B (CTSB) is reported as “good substrate for Cathepsin B”.

With `Cc1noc(C)c1CC(=O)NCCn1nc(-c2ccco2)ccc1=O` [compound (5), N-[2-[3-(2-furanyl)-6-oxo-1(6H)-pyridazinyl]ethyl]-3,5-dimethyl-4-isoxazoleacetamide], the “inhibition of Cathepsin H activity” value on cathepsin H (CTSH) is recorded as “not Cathepsin H”. The “inhibition of Cathepsin B activity” value at cathepsin B (CTSB) was “not Cathepsin B”. Besides, the “toxicity / cell survival” value in series [2] was “well tolerated”. Besides, on cathepsin S (CTSS), the “inhibition of cathepsin S activity” value was “able to inhibit cathepsin S activity”.

As for `Cc1nc(N2CCCC(C(=O)NCc3ccco3)C2)c2c(C)c(C)oc2n1` (stereo not shown) [compound (9), N-(2-furanylmethyl)-1-(2,5,6-trimethylfuro[2,3-d]pyrimidin-4-yl)-3-piperidinecarboxamide], the inhibition at 0.1 µM in series [2] (Homo sapiens, after 72 hours of exposure to 0.1 µM, read-out: decrease of cell proliferation) is at most 50%.

For `Cc1oc2ncnc(N3CCCC(C(=O)NCCc4ccco4)C3)c2c1C` (stereo not shown) [compound (11), 1-(5,6-dimethylfuro[2,3-d]pyrimidin-4-yl)-N-[2-(2-furanyl)ethyl]-3-piperidinecarboxamide], at cathepsin H (CTSH), the “inhibition of Cathepsin H activity” value is given as “not Cathepsin H”. For the same compound, the “inhibition of Cathepsin B activity” value against cathepsin B (CTSB) is given as “not Cathepsin B”. Further, the “inhibition of cathepsin S activity” value against cathepsin S (CTSS) is “able to inhibit cathepsin S activity”.
